Measurements taken from EP3478687B1 (Daewoong Pharmaceutical Co., Ltd., priority 2016, dated 2018).

Experiments:
[1] = biological target: T1, Recombinant purified human JAK3 (Homo sapiens, UniProt P52333); experiment: JAK3 kinase inhibitory activity, ADP-Glo kinase assay (Promega V9441); type: biochemical; details: ATP 5 uM, 4 ng JAK3 per reaction, 1 hour 30 °C, chemiluminescence
T1 construct: purchased Promega V9441
T1 sequence (P52333 1-1124): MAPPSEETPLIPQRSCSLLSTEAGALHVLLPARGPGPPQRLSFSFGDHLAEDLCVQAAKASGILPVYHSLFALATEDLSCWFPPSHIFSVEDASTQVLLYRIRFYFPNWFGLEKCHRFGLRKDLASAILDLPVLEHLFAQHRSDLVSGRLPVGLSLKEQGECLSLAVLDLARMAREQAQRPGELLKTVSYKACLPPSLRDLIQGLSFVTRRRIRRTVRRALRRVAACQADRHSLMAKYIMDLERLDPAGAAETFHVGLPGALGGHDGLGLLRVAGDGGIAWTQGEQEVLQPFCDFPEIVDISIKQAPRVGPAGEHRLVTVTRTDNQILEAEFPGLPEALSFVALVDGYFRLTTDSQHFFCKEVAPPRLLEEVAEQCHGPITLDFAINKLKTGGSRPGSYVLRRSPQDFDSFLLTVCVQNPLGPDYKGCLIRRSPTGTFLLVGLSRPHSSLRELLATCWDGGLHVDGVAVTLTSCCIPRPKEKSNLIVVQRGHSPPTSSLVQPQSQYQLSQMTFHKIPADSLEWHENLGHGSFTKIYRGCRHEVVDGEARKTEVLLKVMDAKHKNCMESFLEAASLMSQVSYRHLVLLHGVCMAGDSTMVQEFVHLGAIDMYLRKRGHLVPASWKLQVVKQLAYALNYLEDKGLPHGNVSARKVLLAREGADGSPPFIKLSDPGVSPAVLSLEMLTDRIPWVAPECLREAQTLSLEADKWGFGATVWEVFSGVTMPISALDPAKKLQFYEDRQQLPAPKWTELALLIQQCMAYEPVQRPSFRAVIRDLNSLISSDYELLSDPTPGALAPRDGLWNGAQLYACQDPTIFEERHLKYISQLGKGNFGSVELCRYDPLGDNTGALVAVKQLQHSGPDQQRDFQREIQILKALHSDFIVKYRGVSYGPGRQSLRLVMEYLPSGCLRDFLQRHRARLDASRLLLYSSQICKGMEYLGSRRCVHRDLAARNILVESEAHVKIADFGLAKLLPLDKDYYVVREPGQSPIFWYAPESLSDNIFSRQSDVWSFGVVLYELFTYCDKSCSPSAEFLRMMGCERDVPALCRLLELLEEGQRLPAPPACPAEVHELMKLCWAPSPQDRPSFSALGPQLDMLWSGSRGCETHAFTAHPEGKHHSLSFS
Method in brief: (§1)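 Recombinant human kinases in Tris pH 7.5 buffer with MgCl2, BSA and DTT (MnCl2 added for BTK), 4 ng JAK3 or 8 ng BTK per reaction. Poly(Glu4,Tyr1) 0.2 µg/µL with 5 µM (JAK3) or 10 µM (BTK) ATP, 1% DMSO, 1 h at 30 °C. ADP-Glo luminescence used to derive IC50.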

[2] = biological target: T2, Recombinant purified human BTK (Homo sapiens, UniProt Q06187); experiment: BTK kinase inhibitory activity, ADP-Glo kinase assay (Promega V9071); type: biochemical; details: ATP 10 uM, 8 ng BTK per reaction, 1 hour 30 °C, chemiluminescence
T2 construct: purchased Promega V9071
Method in brief: as §1

T2 sequence (Q06187 whole entry): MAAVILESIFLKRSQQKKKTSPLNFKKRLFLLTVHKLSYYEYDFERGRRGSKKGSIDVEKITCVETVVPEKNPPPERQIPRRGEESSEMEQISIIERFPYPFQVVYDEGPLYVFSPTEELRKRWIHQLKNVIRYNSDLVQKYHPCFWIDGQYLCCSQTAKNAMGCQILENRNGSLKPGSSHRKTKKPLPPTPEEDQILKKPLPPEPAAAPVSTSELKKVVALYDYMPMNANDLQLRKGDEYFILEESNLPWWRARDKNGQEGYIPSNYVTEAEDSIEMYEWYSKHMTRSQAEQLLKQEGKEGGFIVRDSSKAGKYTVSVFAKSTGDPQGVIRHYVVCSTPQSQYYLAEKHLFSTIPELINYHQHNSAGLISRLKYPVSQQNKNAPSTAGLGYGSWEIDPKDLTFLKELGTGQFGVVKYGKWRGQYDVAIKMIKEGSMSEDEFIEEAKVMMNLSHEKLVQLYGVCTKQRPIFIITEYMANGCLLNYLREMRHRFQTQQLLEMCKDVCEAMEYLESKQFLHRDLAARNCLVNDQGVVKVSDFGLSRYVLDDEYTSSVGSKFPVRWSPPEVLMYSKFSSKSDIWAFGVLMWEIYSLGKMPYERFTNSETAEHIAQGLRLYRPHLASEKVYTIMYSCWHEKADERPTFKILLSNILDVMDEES

Row | SMILES | IC50 [1] [nM] | IC50 [2] [nM]
1 | CCn1cc(Nc2nc(S[C@@H]3CCCN(C(=O)/C(C#N)=C/C4CC4)C3)c3c(Cl)n[nH]c3n2)cn1 [Example 181] | 30.2 | 2.2
2 | CCn1cc(Nc2nc(N[C@@H]3CCCN(C(=O)/C(C#N)=C/C(C)C)C3)c3c(Cl)c[nH]c3n2)cn1 [Example 178, (R,E)-2-(3-((5-chloro-2-((1-ethyl-1H-pyrazol-4-yl)amino)-7H-pyrrolo[2,3-d]pyrimidin-4-yl)amino)piperidine-1-carbonyl)-4-methylpent-2-enenitrile] | 0.5 | 0.9
3 | C=CC(=O)N1CCC[C@@H](N(C)c2nc(Nc3cnn(CC)c3)nc3[nH]nc(SC)c23)C1 [Example 131, (R)-1-(3-((6-((1-ethyl-1H-pyrazol-4-yl)amino)-3-(methylthio)-1H-pyrazolo [3,4-d]pyrimidin-4-yl)(methyl)amino)piperidin-1-yl)prop-2-en-1-one] | 24.5 | 1.6
4 | C=CC(=O)N1CCC[C@@H](Nc2nc(Nc3ccc(N4CCOCC4)cc3)nc3[nH]cc(Cl)c23)C1 [Example 61, (R)-1-(3-((5-chloro-2-((4-morpholinophenyl)amino)-7H-pyrrolo[2,3-d]pyrimidin-4-yl)amino)piperidin-1-yl)prop-2-en-1-one] | 1.1 | 1.7
5 | C=CC(=O)N1CCC[C@@H](Nc2nc(Nc3cnn(C4CC4)c3)nc3[nH]nc(SC)c23)C1 [Example 129] | 42.3 | 2.3
6 | C=CC(=O)N1CCC[C@@H](Nc2nc(Nc3ccc(-n4nc(C)cc4C)cc3)nc3[nH]ccc23)C1 [Example 6, (R)-1-(3-(2-(4-(3,5-dimethyl-1H-pyrazol-1-yl)phenylamino)-7H-pyrrolo [2,3-d]pyrimidin-4-ylamino)piperidin-1-yl)prop-2-en-1-one] | 4.6 | 9.6
7 | C=CC(=O)N1CCC[C@@H](Nc2nc(Nc3cnn(CC)c3)nc3[nH]nc(SC)c23)C1 [Example 189, (R)-1-(3-((6-((1-ethyl-1H-pyrazol-4-yl)amino)-3-(methylthio)-1H-pyrazolo [3,4-d]pyrimidin-4-yl)amino)piperidin-1-yl)prop-2-en-1-one] | 3.4 | 0.721
8 | C=CC(=O)N1CCC[C@@H](Nc2nc(Nc3cnn(CCN(CC)CC)c3)nc3[nH]nc(Cl)c23)C1 [Example 57, (R)-1-(3-(3-chloro-6-(1-(2-(diethylamino)ethyl)-1H-pyrazol-4-ylamino)-1H-pyrazolo [3,4-d]pyrimidin-4-ylamino)piperidin-1-yl)prop-2-en-1-one] | 0.4 | 1.8
9 | C=CC(=O)N1CCC[C@@H](Nc2nc(Nc3cnn(CCN4CCOCC4)c3)nc3[nH]nc(Cl)c23)C1 [Example 54, (R)-1-(3-(3-chloro-6-(1-(2-morpholinoethyl)-1H-pyrazol-4-ylamino)-1H-pyrazolo [3,4-d]pyrimidin-4-ylamino)piperidin-1-yl)prop-2-en-1-one] | 0.7 | 1.8
10 | CCn1cc(Nc2nc(N[C@@H]3CCCN(C(=O)/C(C#N)=C/C4CC4)C3)c3c(Cl)c[nH]c3n2)cn1 [Example 177, (R,E)-2-(3-((5-chloro-2-((1-ethyl-1H-pyrazol-4-yl)amino)-7H-pyrrolo[2,3-d]pyrimidin-4-yl)amino)piperidine-1-carbonyl)-3-cyclopropylacrylonitrile] | 0.4 | 1.2
11 | C=CC(=O)N1CCC[C@@H](Nc2nc(Nc3cnoc3)nc3[nH]ccc23)C1 [Example 23, (R)-1-(3-(2-(isoxazol-4-ylamino)-7H-pyrrolo[2,3-d]pyrimidin-4-ylamino)piperidin-1-yl)prop-2-en-1-one] | 0.9 | 13.9
12 | C=CC(=O)N1CCC[C@@H](Nc2nc(Nc3cnn(C)c3)nc3[nH]ccc23)C1 [Example 14, (R)-1-(3-(2-(1-methyl-1H-pyrazol-4-ylamino)-7H-pyrrolo[2,3-d]pyrimidin-4-ylamino)piperidin-1-yl)prop-2-en-1-one] | 1.1 | 19.2
13 | C=CC(=O)N1CCC[C@@H](Nc2nc(Nc3ccc(N4CCN(C)CC4)cc3)nc3[nH]cc(Cl)c23)C1 [Example 36, (R)-1-(3-(5-chloro-2-(4-(4-methylpiperazin-1-yl)phenylamino)-7H-pyrrolo [2,3-d]pyrimidin-4-ylamino)piperidin-1-yl)prop-2-en-1-one] | 1.1 | 16.5
14 | C=CC(=O)N1CCC[C@@H](Nc2nc(Nc3ccc(N(C)C)cc3)nc3[nH]ccc23)C1 [Example 9, (R)-1-(3-(2-(4-(dimethylamino)phenylamino)-7H-pyrrolo[2,3-d]pyrimidin-4-ylamino)piperidin-1-yl)prop-2-en-1-one] | 3.9 | 20.5
15 | C=CC(=O)N1CC[C@@H](C)[C@@H](Nc2nc(Nc3cnn(CC(F)F)c3)nc3[nH]nc(SC)c23)C1 [Example 133, 1-((3R,4R)-3-((6-((1-(2,2-difluoroethyl)-1H-pyrazol-4-yl)amino)-3-(methylthio)-1H-pyrazolo [3,4-d]pyrimidin-4-yl)amino)-4-methylpiperidin-1-yl)prop-2-en-1-one] | 16 | 1.6
16 | C=CC(=O)N1CCC[C@@H](Nc2nc(Nc3cnn(C4CC4)c3)nc3[nH]nc(C)c23)C1 [Example 188, (R)-1-(3-((6-((1-cyclopropyl-1H-pyrazol-4-yl)amino)-3-methyl-1H-pyrazolo[3,4-d]pyrimidin-4-yl)amino)piperidin-1-yl)prop-2-en-1-one] | 23.5 | 2.9
17 | N#C/C(=C\C1CCCC1)C(=O)N1CCC[C@@H](Nc2nc(Nc3cnn(C4CC4)c3)nc3[nH]nc(Cl)c23)C1 [Example 165, (R,E)-2-(3-((3-chloro-6-((1-cyclopropyl-1H-pyrazol-4-yl)amino)-1H-pyrazolo[3,4-d]pyrimidin-4-yl)amino)piperidine-1-carbonyl)-3-cyclopentylacrylonitrile] | 2.2 | 1.9
18 | C=CC(=O)N1CCC[C@@H](Nc2nc(Nc3cnn(Cc4cccc(OC)c4)c3)nc3[nH]nc(Cl)c23)C1 [Example 58, (R)-1-(3-(3-chloro-6-(1-(3-methoaybenzyl)-1H-pyrazol-4-ylamino)-1H-pyrazolo[3,4-d]pyrimidin-4-ylamino)piperidin-1-yl)prop-2-en-1-one] | 0.5 | 1.8
19 | C=CC(=O)N1CCC[C@@H](Nc2nc(Nc3cnn(C4CC4)c3)nc3[nH]cc(Cl)c23)C1 [Example 62, (R)-1-(3-((5-chloro-2-((1-cyclopropyl-1H-pyrazol-4-yl)amino)-7H-pyrrolo[2,3-d]pyrimidin-4-yl)amino)piperidin-1-yl)prop-2-en-1-one] | 0.2 | 1.7
20 | C=CC(=O)N1CCC[C@@H](Sc2nc(Nc3cnn(CC)c3)nc3[nH]cc(F)c23)C1 [Example 85, (R)-1-(3-((2-((1-ethyl-1H-pyrazol-4-yl)amino)-5-fluoro-7H-pyrrolo[2,3-d]pyrimidin-4-yl)thio)piperidin-1-yl)prop-2-en-1-one] | 1.5 | 2.2
21 | C=CC(=O)N1CC[C@@H](F)[C@@H](Nc2nc(Nc3cnn(CC)c3)nc3[nH]ccc23)C1 [Example 76, 1-((3S,4R)-3-((2-((1-ethyl-1H-pyrazol-4-yl)amino)-7H-pyrrolo[2,3-d]pyrimidin-4-yl)amino)-4-fluoropiperidin-1-yl)prop-2-en-1-one] | 0.3 | 1
